{"source": "patent US20250129062A1", "about": "“AMORPHOUS SUBSTANCES, CRYSTALS, PHARMACEUTICAL COMPOSITIONS, PREPARATION METHODS AND USES OF THIOHYDANTOIN COMPOUND OR PHARMACEUTICALLY ACCEPTABLE SALT THEREOF” (SUZHOU KINTOR PHARMACEUTICALS, INC., priority 2021, published 2025)", "experiment": "Distribution of compound in sebaceous glands and blood of golden hamsters after single skin application", "type": "in vivo", "settings": "golden hamsters, administration via skin application; listed as amorphous substance of the compound of formula I", "procedure": "6 male golden hamsters were selected for the experiment, and randomly divided evenly into 2 groups, with three golden hamsters per group. All animals were fasted overnight before administration, and were administered via a route of single application. Sampling was performed at specific time points after administration. Specific information on animal grouping, administration, sampling, etc. were detailed in Table 6.\nThe amorphous substance of the compound of formula I was weighed and placed in a 50 mL centrifugal tube. A mixed solvent (consisting of 75% v/v ethanol, 15% v/v glyceryl tri (2-ethylhexanoate) and 10% v/v glycerin) was added. After vortexing, heating was performed at 60° C. until the amorphous substance of the compound of formula I was completely dissolved. The amorphous substances of the compound of formula I in the two groups were prepared at 30 mg/mL and 100 mg/mL, respectively, and stored at room temperature in the dark.\nAfter administration, blood was collected into blood collection tubes containing a heparin sodium anticoagulant at corresponding time points. Immediately after collection of whole blood, the blood collection tubes were gently shaken and placed on ice, and then centrifuged (4° C., 4000 rpm, 10 min). The supernatant plasma samples (plasma volume ≥100 μL) were collected, and stored in a refrigerator at about −80° C. The plasma samples were collected for 8 h for analysis."}
{"smiles": "Cc1ncsc1-c1ccc(CNC(=O)[C@@H]2C[C@@H](O)CN2C(=O)[C@@H](NC(=O)COCCCCOc2ccc(-c3ccc(N4C(=S)N(c5ccc(C#N)c(C(F)(F)F)c5F)C(=O)C4(C)C)cn3)cc2)C(C)(C)C)cc1", "values": [{"measurement": "distribution between sebaceous glands and blood after skin application", "result": "can enter sebaceous glands but cannot enter blood"}]}
